Experimental data: patent publication US5830504A, “Cooperative combinations of ligands contained within a matrix” (La Jolla Cancer Research Foundation, priority 1995, dated 1998)

What was measured:
Assay type in all cases: cell-based
NRK cells = experiment: DNA synthesis in IGF-1-stimulated NRK cells on vitronectin, collagen or laminin; conditions: data not shown
Rat-1 cells = experiment: DNA synthesis ([3H]-thymidine incorporation) in EGF-stimulated Rat-1 cells on vitronectin or collagen; conditions: 40 ng/ml EGF, 20 μg/ml coating, FIG. 6
Method: Rat-1 cells were plated at 1×10^5 cells/well on 24-well plates that had been coated for 12 hours either with 20 μg/ml of vitronectin or 20 μg/ml of type I collagen. Cells were incubated for 36 hours in Dulbecco's modified Eagle's medium containing 0.1% bovine serum albumin followed by addition of buffer or 40 ng/ml EGF (Boehringer Mannheim). After 15 hours, the cells were pulse-labeled with 1 μCi/ml [^3 H]-thymidine (specific activity 6.7 Ci/mmol, DuPont NEN) for 3 hours and thymidine incorporation into DNA was determined by liquid scintillation counting.
After being serum-starved, the cells were treated with buffer only (samples 1 and 2) or with EGF (samples 3 and 4). Data points are the average of triplicate samples.

[1] = test system: FG-B human pancreatic carcinoma cells (αv β3 integrin positive); experiment: DNA synthesis ([3H]-thymidine incorporation into DNA) in insulin-stimulated FG-B cells on vitronectin or type I collagen; conditions: 100 mM insulin, plates coated with 10 μg/ml vitronectin or type I collagen, FIG. 4 columns 9, 10
Method: (§1) FG-B (columns 1, 2, 5, 6, 9, and 10) and FG-C cells (columns 3, 4, 7, 8, 11, and 12) were plated at 1×10^5 cells/well on 24-well plates that had been coated either with vitronectin (dark column) or type I collagen (open column) . Plates were coated with 10 μg/ml of either vitronectin or type I collagen for 12 hours followed by blocking with 0.5% bovine serum albumin For 2 hours. Cells were incubated for 36 hours in DMEM containing 10% FCS (columns 1 to 4), or in DMEM containing 0.1% BSA followed by addition of buffer (columns 5 to 8) or 100 mM insulin (columns 9 to 12). FCS is used as a control because it provides maximal stimulation owing to the presence of high levels of growth factors and adhesion proteins.
(§2) After 15 hours, the cells were pulse-labeled with 1 μCi/ml [^3 H]-thymidine (specific activity 6.7 Ci/mmol, DuPont NEN) for 3 hours and thymidine incorporation into DNA was determined by trichloroacetic acid precipitation and liquid scintillation counting. Error bars indicate the standard error of triplicate determinations.

[2] = test system: FG-C human pancreatic carcinoma cells (αv β3 integrin negative); experiment: DNA synthesis ([3H]-thymidine incorporation into DNA) in insulin-stimulated FG-C cells on vitronectin or type I collagen; conditions: FG-C cells lacking αv β3; 100 mM insulin; FIG. 4 columns 3, 4, 7, 8, 11, 12
Method: as §1, §2

[3] = test system: αv β3 integrin-IRS-1 association in HIRcB cells; experiment: Association of IRS-1 with the vitronectin receptor after insulin stimulation (immunoprecipitation, immunoblot, densitometry); conditions: insulin-stimulated HIRcB cells; 100 nM insulin; compared with IRS-1 from total cell lysate
Method: HIRcB cells were grown to 80% confluency in Dulbeccos's modified Eagle's medium (DMEM) containing 10% fetal calf serum (FCS) and 500 nM methotrexate, incubated in DMEM+0.1% BSA for 36 hours, and either left quiescent, or stimulated with 100 nM insulin (Sigma) for 3 minutes. Cell monolayers were rinsed with PBS, frozen with liquid nitrogen and lysed in NP-40 lysis buffer (20 mM Tris-HCl (pH 8.0), 1% NP-40, 10% glycerol, 137 mM NaCl, 1 mM CaCl2, 1 mM MgCl2, 1 mM sodium orthovanadate, 50 mM sodium fluoride, 1 mM phenylmethylsulfonylfluoride, 0.1 U/ml aprotinin, 10 μg/ml pepstatin A). HIRcB cells were immunoprecipitated with anti-αv β3 237 according to Suzuki et al., PNAS USA 83:8614 (1986), as shown in lanes 1 and 3, 237 preimmune serum in lane 2, anti-αv β3 1343 in lane 4, anti-αIIb β3 in lane 5, anti-α5 β1 488 in lane 6 (made according to Argraves et al., J. Cell Biol. 105:1183 (1987)) and an unrelated rabbit antiserum (lane 7). Anti-αv β3 1343 was obtained from a person (Telios Pharmaceuticals, Inc.) and anti-αIIb β3 from Dr. Elisabetta Dejana (Mario Negri Institute, Milan, Italy). Three anti-α5 β1 antibodies and six unrelated polyclonal antibodies tested gave results similar to those shown in lanes 6 and 7. […] In lane 8, anti-αv β3 237 immunocomplexes from insulin-treated cells were dissociated and reprecipitated with the same antibody as follows. […]

[4] = test system: human foreskin fibroblasts; experiment: DNA synthesis ([3H]-thymidine incorporation) in PDGF-stimulated human foreskin fibroblasts on vitronectin or collagen; conditions: 40 ng/ml PDGF-BB, 20 μg/ml coating, FIG. 5 column 3 vs 4
Method: Human foreskin fibroblasts (Coriell) were plated at 1×10^5 cells/well on 24-well plates that had been coated for 12 hours either with 20 μg/ml of vitronectin of 20 μg/ml of type I collagen. Cells were incubated for 36 hours in Dulbecco's modified Eagle's medium containing 0.1% bovine serum albumin followed by addition of buffer or 40 ng/ml PDGF-BB (Boehringer Mannheim). After 15 hours, the cells were pulse-labeled with 1 μCi/ml [^3 H]-thymidine (specific activity 6.7 Ci/mmol, DuPont NEN) for 3 hours and thymidine incorporation into DNA was determined by liquid scintillation counting.
Cells were serum-starved and treated with buffer only (samples 1 and 2) or with PDGF (samples 3 and 4). Data points are the average of duplicate samples.

insulin-like growth factor [IGF-1]
DNA synthesis in response to IGF-1, on vitronectin relative to collagen or laminin (NRK cells): about 2.3 fold

Epidermal growth factor (NSDSECPLSHDGYCLHDGVCMYIEALDKYACNCVVGYIGERCQYRDLKWWELR; Epidermal growth factor; UniProt P01133 971-1023, looked up) [EGF, EGF from Boehringer Mannheim]
Response (DNA synthesis) to EGF on vitronectin versus collagen (Rat-1 cells): same response

insulin
DNA synthesis in response to insulin, on vitronectin relative to collagen [1]: about 2.5 fold | Difference in DNA synthesis response on vitronectin and collagen [2]: no difference | Share of IRS-1 complexed with the vitronectin receptor [3]: Five to eight

platelet derived growth factor [PDGF]
DNA synthesis in response to PDGF, on vitronectin relative to collagen [4]: about 2.3 fold
